Assay [1] has as its target T1, human recombinant 5-Lipoxygenase (Homo sapiens, UniProt P09917).
T1 sequence (P09917 1-674): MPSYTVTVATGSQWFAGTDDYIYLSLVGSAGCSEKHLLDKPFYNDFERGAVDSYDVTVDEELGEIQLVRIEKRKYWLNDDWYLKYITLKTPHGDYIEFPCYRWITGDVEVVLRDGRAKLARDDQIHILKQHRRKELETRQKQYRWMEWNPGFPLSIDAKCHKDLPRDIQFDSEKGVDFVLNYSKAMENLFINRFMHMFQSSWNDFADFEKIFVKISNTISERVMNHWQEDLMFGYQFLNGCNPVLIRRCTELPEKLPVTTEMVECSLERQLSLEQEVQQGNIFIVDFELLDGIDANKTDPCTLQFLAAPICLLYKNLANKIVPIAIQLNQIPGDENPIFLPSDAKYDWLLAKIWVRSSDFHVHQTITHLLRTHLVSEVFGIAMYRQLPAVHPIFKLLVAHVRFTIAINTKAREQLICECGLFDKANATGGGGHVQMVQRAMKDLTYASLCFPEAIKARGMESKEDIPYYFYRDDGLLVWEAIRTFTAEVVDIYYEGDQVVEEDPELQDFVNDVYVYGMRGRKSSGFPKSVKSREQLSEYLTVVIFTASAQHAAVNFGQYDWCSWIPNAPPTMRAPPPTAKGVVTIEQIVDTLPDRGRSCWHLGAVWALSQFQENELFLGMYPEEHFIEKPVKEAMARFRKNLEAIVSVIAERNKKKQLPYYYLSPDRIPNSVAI
Nature of the assay: 5-Lipoxygenase Enzyme Assay. The assay is classed as biochemical. Conditions: 70 μM arachidonic acid, 10 minute incubation at room temperature, FOX reagent, absorbance at 620 nm; read-out: inhibition of 5-Lipoxygenase with an IC50. In outline:
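Recombinant human 5-LOX in 50 mM Tris-HCl pH 7.4 was preincubated with compound, then 70 μM arachidonic acid was added for 10 min at room temperature. Hydroperoxide was read by FOX reagent (ferric xylenol orange, 1 h complex formation) as absorbance at 620 nm. Five concentrations in triplicate were tested, starting at 10 μM.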

In assay [2] the test system is release of the leukotriene LTB4 from a neutrophil cell line (MPRO cell line). Nature of the assay: LTB4-Cell Assay. The assay is classed as cell-based. Conditions: Mus musculus, 1 h, read-out: inhibition of LTB4 with an EC50. In outline: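 Mouse promyelocytic cells differentiated to neutrophils with 10 μM all-trans retinoic acid for 72 h, then stimulated with 1 μM A23187 plus compound for 1 h at 37° C. Supernatant LTB4 quantified by competitive EIA; 5 concentrations in quadruplicate from 10 μM top.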

Structures are written as SMILES.

Among the data in patent publication US7576094B2, “Spiro derivatives as lipoxygenase inhibitors” (Eli Lilly and Company, priority 2004, dated 2009) are IC50 and EC50 values, retold here.

Broadly, the IC50 is the concentration needed to halve the response being measured. Usually EC50 stands for the concentration needed to bring the measured effect to its halfway point. Take `Cc1c(O)cc2c(c1C)OC1(CCC1)CC2` [7,8-dimethyl-3,4-dihydrospiro[chromene-2,1′-cyclobutan]-6-ol]: the half-maximal inhibitory concentration (IC50) in assay [1] is less than 300 nM. Also, the EC50 in assay [2] was less than 5000 nM.
For `Cc1c(O)c(C(C)(C)C)cc2c1CCC1(CCC1)O2` [7-tert-butyl-5-methyl-3,4-dihydrospiro[chromene-2,1′-cyclobutan]-6-ol] the same measures were less than 300 nM and less than 5000 nM.
As for `Cc1cc2c(c(C)c1O)CC1(CCC1)CO2` [5,7-dimethylspiro[chroman-3,1′-cyclobutan]-6-ol], in assay [1], the IC50 was less than 300 nM. Moreover, the EC50 in assay [2] is less than 5000 nM.
Turning to `Cc1cc2c(c(C)c1O)CCC1(CCC1)O2` [5,7-dimethyl-3,4-dihydrospiro[chromene-2,1′-cyclobutan]-6-ol], the IC50 in assay [1] was less than 300 nM. Besides, the half-maximal effective concentration (EC50) in assay [2] is less than 5000 nM.
For `CCONC1CC2(CCC2)Sc2cc(C)c(O)c(C)c21` (centres unmarked) [4′-(ethoxyamino)-5′,7′-dimethyl-3′,4′-dihydrospiro[cyclobutane-1,2′-thiochromen]-6′-ol] the same measures were less than 300 nM and less than 5000 nM.
For `CCO/N=C/C1=Cc2c(cc(C)c(O)c2C)OC12CCC2` [6-hydroxy-5,7-dimethylspiro[chromene-2,1′-cyclobutane]-3-carbaldehyde O-ethyloxime] the same measures were less than 300 nM and less than 5000 nM.
For `CO/N=C1\CC2(CCC2)Sc2c(C)c(C)c(O)c(C)c21` [6′-hydroxy-5′,7′,8′-trimethylspiro[cyclobutane-1,2′-thiochroman]-4′(3′H)-one O-methyloxime] the same measures were less than 300 nM and less than 5000 nM.
With `COC(C)C1=Cc2c(C)c(O)c(C)c(C)c2OC12CCC2` (centres unmarked) [3-(1-methoxyethyl)-5,7,8-trimethylspiro[chromene-2,1′-cyclobutan]-6-ol], in assay [1], the concentration for half-maximal inhibition (IC50) was less than 300 nM. In addition, the concentration giving a half-maximal response (EC50) in assay [2] is less than 5000 nM.
For `CCONCC1=Cc2c(cc(C)c(O)c2C)OC12CCC2` [3-[(ethoxyamino)methyl]-5,7-dimethylspiro[chromene-2,1′-cyclobutan]-6-ol] the same measures were less than 300 nM and less than 5000 nM.
For `Cc1cc2c(c(C)c1O)C=CC1(CCC1)O2` [5,7-dimethylspiro[chromene-2,1′-cyclobutan]-6-ol] the same measures were less than 300 nM and less than 5000 nM.
For `CCONC1CC2(CCC2)Sc2c(C)c(C)c(O)c(C)c21` (centres unmarked) [4′-(ethoxyamino)-5′,7′,8′-trimethyl-3′,4′-dihydrospiro[cyclobutane-1,2′-thiochromen]-6′-ol], the concentration for half-maximal inhibition (IC50) in assay [1] is less than 300 nM. Besides, the concentration giving a half-maximal response (EC50) in assay [2] was less than 5000 nM.
For `Cc1c(C)c2c(c(Cl)c1O)CCC1(CCC1)O2` [5-chloro-7,8-dimethyl-3,4-dihydrospiro[chromene-2,1′-cyclobutan]-6-ol] the same measures were less than 300 nM and less than 5000 nM.
For `Cc1c(C)c2c(c(C)c1O)C1(CCC1)CCS2` [5′,7′,8′-trimethyl-2′,3′-dihydrospiro[cyclobutane, 1,4′-thiochromen]-6′-ol] the same measures were less than 300 nM and less than 5000 nM.
For `CC(C)(C)c1cc2c(cc1O)CCC1(CCC1)O2` [7-tert-butyl-3,4-dihydrospiro[chromene-2,1′-cyclobutan]-6-ol] the same measures were less than 300 nM and less than 5000 nM.
Regarding `Cc1c(C)c2c(c(C)c1O)C1(CCC1)CC(C)(C)S2` [2′,2′,5′,7′,8′-pentamethyl-2′,3′-dihydrospiro[cyclobutane-1,4′-thiochromen]-6′-ol], the concentration for half-maximal inhibition (IC50) in assay [1] is less than 300 nM. The EC50 in assay [2] was less than 5000 nM.
For `CONC1CC2(CCC2)Sc2c(C)c(C)c(O)c(C)c21` (centres unmarked) [4′-(methoxyamino)-5′,7′,8′-trimethyl-3′,4′-dihydrospiro[cyclobutane-1,2′-thiochromen]-6′-ol] the same measures were less than 300 nM and less than 5000 nM.
For `CCc1cc2c(c(CC)c1O)CC(CSCC(=O)OC)C1(CCC1)O2` (centres unmarked) [methyl 2-((5,7-diethyl-6-hydroxyspiro[chroman-2,1′-cyclobutane]-3-yl)methylthio)acetate] the same measures were less than 300 nM and less than 5000 nM.
For `CONC1CC2(CCC2)Sc2cc(C)c(O)c(C)c21` (centres unmarked) [4′-(methoxyamino)-5′,7′-dimethyl-3′,4′-dihydrospiro[cyclobutane-1,2′-thiochromen]-6′-ol] the same measures were less than 300 nM and less than 5000 nM.
On to `Cc1c(C)c2c(c(C)c1O)CCC1(CC1)O2` [5,7,8-trimethyl-3,4-dihydrospiro[chromene-2,1′-cyclopropan]-6-ol], for which, in assay [1], the IC50 was less than 300 nM. Moreover, the half-maximal effective concentration (EC50) in assay [2] was less than 5000 nM.
